Test results from US20100029654A1, “CARDIOVASCULAR COMPOSITIONS AND USE OF THE SAME FOR THE TREATMENT OF ALZHEIMER'S DISEASE” (MOUNT SINAI SCHOOL OF MEDICINE, priority 2006, published 2010).
Structures can show the parent of a compound that is named as a salt. Where two headings read alike, the source gives them in different places.

Legend:
[1] = test system: primary cortico-hippocampal neuron cultures; assay: MTT in primary screening
Aβ1-42 [2] = assay: Aβ1-42 content in conditioned medium of primary cortico-hippocampal neuron cultures from Tg2576 mice (ELISA; primary and secondary dose-response screening); assay type: cell-based, mouse; details: for Ab1-42 (% of ctl) / activity at 100 µM: drug 100 μM; for activity at 100 µM: Mus musculus, Neuron, 24 h, read-out: Ab1-42 (% of ctl); for reducing Aβ1-42: <85% of ctl
How it was run: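 Primary cortico-hippocampal neurons from embryonic Tg2576 mouse brain were seeded on poly-D-lysine-coated 96-well plates at 1.0×10^5 cells per well in serum-free Neurobasal medium with 2% B27, 0.5 mM L-glutamine and 1% penicillin-streptomycin. For primary screening, duplicate wells received 100 μM drug (1% DMSO final). Vehicle-treated cultures served as controls, and Aβ1-42 in conditioned medium was measured by commercial ELISA.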

[3] = test system: primary cortico-hippocampal neuron cultures; assay: lactate dehydrogenase (LDH) activity assay in parallel neuron cultures; details: for LDH at E-5M % of change: drug at E-5M; for LDH (at 5F-5 M): Table IV
Aβ1-40 = Aβ1-40 content in conditioned medium of primary cortico-hippocampal neuron cultures from Tg2576 mice (ELISA; primary and secondary dose-response screening); assay type: cell-based, mouse; details: for Ab1-40 (% of ctl) / activity at 100 µM: drug 100 μM; for reduced Aβ1-40: <85% of ctl; for activity at 100 µM: 24 h, read-out: Ab1-40 (% of ctl)
How it was run: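 Primary cortico-hippocampal neurons from embryonic Tg2576 mice were plated at 1.0×10^5 cells per well on poly-D-lysine-coated 96-well plates in Neurobasal with 2% B27, 0.5 mM L-glutamine and 1% penicillin-streptomycin. Cultures received drug in 1% DMSO, and Aβ1-40 in the conditioned medium was measured by BioSource ELISA 24 hours after treatment, relative to vehicle controls.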

Aβ1-42 [4] = assay: Aβ1-42 content in conditioned medium of primary cortico-hippocampal neuron cultures from Tg2576 mice (ELISA; primary and secondary dose-response screening); assay type: cell-based, mouse; details: for EC50 / activity at 100 µM: Mus musculus; for EC50: Neuron; for activity at 100 µM: primary screening, drug 100 μM, Tg2576 neuron cultures, table sorted by Aβ1-42, read-out: Ab1-42 (% of ctl)
[5] = Primary Screening, table sorted by Aβ1-40
[6] = primary screening, table sorted by Aβ1-42
[7] = primary screening, Tg2576 neuron cultures, table sorted by Aβ1-42
[8] = Mus musculus, Neuron, Primary Screening, table sorted by Aβ1-40
[9] = Mus musculus, Neuron, primary screening, Tg2576 neuron cultures, table sorted by Aβ1-42
[10] = Mus musculus, Neuron, Table IV, dose-response 0.01-100 μM, read-out: EC50 (M): Ab-lowering activity Abeta1-40
[11] = Mus musculus, Neuron, secondary dose-response screening 0.01-100 μM, 24 hours, read-out: EC50 (molar) Aβ1-40
[12] = 24 h, secondary dose-response screening 0.01-100 μM, 24 hours, read-out: EC50 (molar) Aβ1-42
[13] = Table IV, dose-response 0.01-100 μM, read-out: EC50 (M): Ab-lowering activity
[14] = Mus musculus, primary screening, Tg2576 neuron cultures, table sorted by Aβ1-42

MTT (% of ctl) [1, 5] | MTT (% of ctl) [1, 6] | LDH (% of ctl) [3, 5] | LDH (% of ctl) [3, 6] | Compound | Ab1-42 (% of ctl) (Aβ1-42 [2]; [5]) | Ab1-40 (% of ctl) (Aβ1-40; [5]) | reduced Aβ1-40 (Aβ1-40; primary screening) | activity at 100 µM (Aβ1-42 [2]; [5]) | activity at 100 µM (Aβ1-42 [2]; [7]) | activity at 100 µM (Aβ1-40; [8]) | activity at 100 µM (Aβ1-40; [9]) | activity at 100 µM (Aβ1-40; [14]) | activity at 100 µM (Aβ1-42 [4]; 24 h) | other results
80.8 % of ctl | 80.8 % of ctl | 104.7 % of ctl | 104.7 % of ctl | N=C(N)NC(=O)c1nc(Cl)c(N)nc1N [Amiloride Hydrochloride] |  |  | reduced Aβ1-40 | 47.1% | 47.1% | 77.5% | 77.5% |  |  | reducing Aβ1-42 (Aβ1-42 [2]; primary screening): useful in reducing Aβ1-42; LDH (at 5F-5 M) [3]: no change; LDH at E-5M % of change [3]: 6.4%; EC50 (Aβ1-40; [10]): 8.67e-05 M; EC50 (Aβ1-40; [11]): 8.67e-05 M; EC50 (Aβ1-42 [4]; [12]): 0.039 M; EC50 (Aβ1-42 [4]; [13]): 3.01e-05 M
80.3 % of ctl | 80.3 % of ctl | 90.4 % of ctl | 90.4 % of ctl | NCCCCCC(=O)O [Aminocaproic Acid] | 184.3 % of ctl | 124.4 % of ctl |  |  |  |  |  | 124% | 184% | 
66.7 % of ctl | 66.7 % of ctl | 148.6 % of ctl | 148.6 % of ctl | COc1ccccc1OCCNCC(O)COc1cccc2[nH]c3ccccc3c12 (centres unmarked) [Carvedilol] |  |  | reduced Aβ1-40 | 30.8% | 30.8% | 38.3% | 38.3% |  |  | reducing Aβ1-42 (Aβ1-42 [2]; primary screening): useful in reducing Aβ1-42; LDH (at 5F-5 M) [3]: no change; EC50 (Aβ1-40; [10]): 6.61e-05 M; EC50 (Aβ1-40; [11]): 6.61e-05 M; EC50 (Aβ1-42 [4]; 24 h, conditioned medium of primary cortico-hippocampal neuron cultures from Tg2576 embryos, 24 hours after treatment, relative to vehicle (1% DMSO) control, read-out: EC50 (molar) Aβ1-42): 0.000132 M; EC50 (Aβ1-42 [4]; [12]): 0.000132 M; EC50 (Aβ1-42 [4]; [13]): 0.000132 M
93.8 % of ctl | 93.8 % of ctl | 103.3 % of ctl | 103.3 % of ctl | Nc1nc(N)c2nc(-c3ccccc3)c(N)nc2n1 [Triamterene] |  |  |  | 64.2% | 64.2% | 85.1% | 85.1% |  |  | reducing Aβ1-42 (Aβ1-42 [2]; primary screening): useful in reducing Aβ1-42
105.5 % of ctl | 105.5 % of ctl | 102.6 % of ctl | 102.6 % of ctl | NS(=O)(=O)c1cc2c(cc1Cl)NC(C(Cl)Cl)NS2(=O)=O (centres unmarked) [Trichlormethiazide] |  |  |  | 84.5% | 84.5% | 89.3% | 89.3% |  |  | reducing Aβ1-42 (Aβ1-42 [2]; primary screening): useful in reducing Aβ1-42
103.4 % of ctl | 103.4 % of ctl | 97.1 % of ctl | 97.1 % of ctl | COc1ccccc1N1CCN(CCCNc2cc(=O)n(C)c(=O)n2C)CC1 [Urapidil] |  |  |  | 114% | 114% | 96.4% | 96.4% |  |  | 
98.5 % of ctl | 98.5 % of ctl | 96.4 % of ctl | 96.4 % of ctl | CC[C@]12CCCN3CCc4c(n(c5ccccc45)[C@@](O)(C(=O)OC)C1)[C@@H]32 [Vincamine] |  |  |  | 104% | 104% | 99.1% | 99.1% |  |  | 
87.7 % of ctl | 87.7 % of ctl | 111.3 % of ctl | 111.3 % of ctl | CCOC(=O)C1=C[C@]2(CC)CCCN3CCc4c(n1c1ccccc41)[C@@H]32 [Vinpocetine] |  |  | reduced Aβ1-40 | 105% | 105% | 60.4% | 60.4% |  |  | 
70.2 % of ctl | 70.2 % of ctl | 192.3 % of ctl | 192.3 % of ctl | Phenylbutyrate Sodium | 86.6 % of ctl | 102.1 % of ctl |  |  |  |  |  |  |  | Ab1-42 (% of ctl) (Aβ1-42 [2]; [7]): 86.6 % of ctl; Ab1-40 (% of ctl) (Aβ1-40; [7]): 102.1 % of ctl

Compound | MTT (% of ctl) [1, 5] | MTT (% of ctl) [1, 6] | LDH (% of ctl) [3, 5] | LDH (% of ctl) [3, 6] | Ab1-42 (% of ctl) (Aβ1-42 [2]; [5]) | Ab1-40 (% of ctl) (Aβ1-40; [5]) | reduced Aβ1-40 (Aβ1-40; primary screening) | activity at 100 µM (Aβ1-42 [2]; [5]) | activity at 100 µM (Aβ1-42 [2]; [7]) | activity at 100 µM (Aβ1-40; [8]) | activity at 100 µM (Aβ1-40; [9]) | activity at 100 µM (Aβ1-40; [14]) | activity at 100 µM (Aβ1-42 [4]; 24 h) | other results
CC[C@@H](C)C(=O)O[C@H]1[C@H](O)[C@H]2[C@@H](CN3C[C@@H](C)CC[C@H]3[C@@]2(C)O)[C@@H]2C[C@]34O[C@]5(O)[C@@H](OC(=O)[C@](C)(O)[C@@H](C)O)CC[C@@]3(C)[C@@H]5[C@@H](OC(C)=O)[C@@H](OC(C)=O)[C@H]4[C@@]21O (stereo in doubt) [Protoveratrine B] | 58.5 % of ctl | 58.5 % of ctl | 729.8 % of ctl | 729.8 % of ctl | 93.3 % of ctl | 61.8 % of ctl | reduced Aβ1-40 |  |  |  |  |  |  | Ab1-42 (% of ctl) (Aβ1-42 [2]; [7]): 93.3 % of ctl; LDH at E-5M % of change [3]: −2.5%; Ab1-40 (% of ctl) (Aβ1-40; [7]): 61.8 % of ctl; EC50 (Aβ1-40; secondary dose-response screening 0.01-100 μM, 24 hours, read-out: EC50 (molar) Aβ1-40): 6.73e-06 M; EC50 (molar) Aβ1-42 (Aβ1-42 [4]; secondary dose-response screening 0.01-100 μM, 24 hours): no fit
COc1cc2c3cc1Oc1c(OC)c(OC)cc4c1[C@@H](Cc1cccc(c1)Oc1ccc(c(O)c1)C[C@@H]3N(C)CC2)N(C)CC4 [Berbamine Hydrochloride] | 97.6 % of ctl | 97.6 % of ctl | 129.1 % of ctl | 129.1 % of ctl | 150.6 % of ctl | 119.1 % of ctl |  |  |  |  |  | 119% | 151% | 
CCN1C[C@]2(C)CC[C@H](OC)[C@@]34C1[C@]1(OCO[C@@]15C[C@H](OC)[C@H]1C[C@]3(O)[C@@H]5[C@H]1OC)[C@@H](OC(C)=O)[C@H]24 [Deltaline] | 99.4 % of ctl | 99.4 % of ctl | 118.9 % of ctl | 118.9 % of ctl | 143.0 % of ctl | 121.0 % of ctl |  |  |  |  |  | 121% | 143% | 
C[C@H]1O[C@@H](O[C@H]2[C@@H](O)C[C@H](O[C@H]3[C@@H](O)C[C@H](O[C@H]4CC[C@@]5(C)[C@H](CC[C@@H]6[C@@H]5CC[C@]5(C)[C@@H](C7=CC(=O)OC7)CC[C@]65O)C4)O[C@@H]3C)O[C@@H]2C)C[C@H](O)[C@@H]1O [Digitoxin] | 86.0 % of ctl | 86.0 % of ctl | 106.4 % of ctl | 106.4 % of ctl | 92.9 % of ctl | 68.3 % of ctl | reduced Aβ1-40 |  |  |  |  | 68.3% | 92.9% | 
COc1ccc(CCN(C)CCCC(C#N)(c2ccc(OC)c(OC)c2)C(C)C)cc1OC (centres unmarked) [Verapamil] |  |  | 92.5 % of ctl | 92.5 % of ctl | 101.1 % of ctl | 70.9 % of ctl | reduced Aβ1-40 |  |  |  |  | 70.9% | 101% | 
CC(=O)CC(c1ccccc1)c1c(O)c2ccccc2oc1=O (centres unmarked) [Warfarin] | 100.1 % of ctl | 100.1 % of ctl | 106.6 % of ctl | 106.6 % of ctl |  |  |  | 107% | 107% | 89.4% | 89.4% |  |  | 
